Experimental data: patent US12371658B2, “Three-dimensional microtissues with integrated mechanical loading” (Carnegie Mellon University, priority 2017, dated 2025)

Test system: cardiac MIFIs (HUES9-CMs with 10% FBs)
Test: side-on contractility assay of cardiac MIFIs with drug dosing (twitch force, beat frequency)
Type: cell-based, human
Conditions: for beat frequency relative to initial beat frequency: normalized to native beat frequency
Method: MIFIs were removed from wells using forceps and were transferred to a 35 mm petri dish filled with 37° C. Tyrode's solution (1.192 g HEPES, 0.203 g MgCl2, 0.403 g KCl, 7.889 g NaCl, 0.04 g NaH2PO4, 0.901 g C6H12O6, and 0.265 g CaCl2) per liter of distilled water, pH 7.4). MIFIs were anchored by placing the wide base of the strip into a slit in a PDMS block glued to the bottom of the stimulation dish. The Tyrode's bath was maintained between 30° and 37° C. using a heated stage regulated by an in house Lab VIEW program. Videos of samples were taken using a NikonTM […] DSLR camera mounted on a NikonTM SMZ1500 stereomicroscope. Samples were paced from 2-10 Hz using parallel platinum electrodes placed 2 cm apart and immersed in Tyrode's solution. Samples were stimulated with 40V using a 10 ms square pulse wave. Shorter pulse durations can also be used (e.g., 2 ms, 4 ms, 6 ms, etc.). Carbachol and isoprenaline were mixed to stock concentrations of 5 mM in 1× Tyrode's solution. […] Caffeine was dissolved directly in Tyrode's to make a stock solution of 20 mM. […] Finite element modeling of bending PDMS strips was used to create lookup tables for strips ranging in thickness from 125 to 154 μm. FIGS. 9A-D show modeling data 930 for strips 900, 910, and 920. The elastic strip (e.g., strip 112) was modeled as 3D deformable extruded solid, with extruded thickness varying between 125 and 154 μm. The elastic strip was considered as linearly elastic, isotropic and incompressible material, with Young's modulus equal to 3.09 MPa according to elastic modulus measurements. The section of the elastic strip was considered as solid homogeneous. The force-driven bending simulation was designed to mimic the experimental procedure. One static general analysis step was used where the elastic strip was deformed by application of equal contractile force in three parallel axial connectors placed in the regions where the tissue was attached during the experiment, so that the total force would equal the sum of the contractile force of the three connectors. […] Additional boundary conditions were imposed based on geometrical symmetry. […] Finally, the finite element mesh was composed of 20-node quadratic, hybrid, reduced integration brick elements. From this model, the change in tissue length could then be used to calculate the force necessary to bend the strips to these conformations. Length changes of contracting MIFIs were tracked and resulting length data was used to calculate the corresponding force based on tissue length and strip parameters (e.g., thickness, width, length, elastic modulus, and shape). […] By tracking the change in tissue length of beating MIFIs, we calculated force generated by these tissues using force lookup tables. MIFIs were removed from wells, one side of the strip was placed in a slit in a PDMS block to anchor the MIFI for side-on viewing, and the construct was submerged in Tyrode's and placed between two parallel platinum electrodes for later stimulation by assay device 1300.

[1] = Day 14, 10% FB MIFI, carbachol dosing, concentration not given
[2] = Day 14, 10% FB MIFI, isoprenaline at 500 nM and 5 μM

SMILES: Cn1c(=O)c2c(ncn2C)n(C)c1=O [caffeine]
- beat frequency relative to initial BPM (5 mM caffeine): 1.59 ×
- effect on twitch force (Day 14, 10% FB MIFI, 55 mM caffeine): minimal impact on the twitch force
- effect on spontaneous beat frequency (Day 14, 10% FB MIFI, 55 mM caffeine, after isoprenaline wash-out): increased the spontaneous beat frequency

SMILES: C[N+](C)(C)CCOC(N)=O [carbachol]
- effect on spontaneous beat frequency [1]: reduced the spontaneous beat frequency
- effect on twitch force [1]: surprisingly little impact on twitch force
- twitch force relative to twitch force of synchronous constructs (Day 14 arrhythmic construct, carbachol 500 nM, 5 μM, 50 µM, spontaneous beating): ~30%
- effect on spontaneous beat frequency of arrhythmic construct (Day 14 arrhythmic construct, increasing carbachol doses 500 nM, 5 μM, 50 µM): improvement in the spontaneous beat frequency
- fold stronger twitch contraction (arrhythmic construct, 2 Hz pacing coupled with 5 μM carbachol): 2.5 ×
- fold stronger twitch contraction (arrhythmic construct, 2 Hz pacing coupled with 50 μM carbachol): 2.8 ×
- combinatorial effect of drug treatment with electric pacing on twitch force (arrhythmic construct, carbachol 5 μM and 50 μM, 2 Hz pacing): significantly higher twitch forces

SMILES: CNC[C@H](O)c1ccc(O)c(O)c1 [epinephrine]
- twitch force as percent of initial twitch force (5 μM epinephrine, electrical pacing 2 Hz): 85%
- twitch force as percent of initial twitch force (5 μM epinephrine, spontaneous beating): 66%
- twitch force as percent of initial twitch force (50 μM epinephrine, electrical pacing 2 Hz): 80%
- twitch force as percent of initial twitch force (50 μM epinephrine, spontaneous beating): 61%
- twitch force (Day 14, 10% FB MIFI, 500 nM epinephrine, spontaneous beating): 5.49 μN
- effect on twitch force (Day 14, 10% FB MIFI, epinephrine 500 nM to 50 μM): dose-dependent decrease in twitch force
- beat frequency relative to initial BPM (epinephrine, first of two values, dose not given): 1.42 ×

SMILES: CC(C)NCC(O)c1ccc(O)c(O)c1 (centres unmarked) [isoprenaline]
- beat frequency relative to initial beat frequency (500 nM isoprenaline): 1.27 ×
- beat frequency relative to initial beat frequency (50 μM isoprenaline): 1.48 ×
- twitch force as percent of initial twitch force (Day 14, 10% FB MIFI, 500 nM isoprenaline): ~80%
- twitch force (Day 14, 10% FB MIFI, 500 nM isoprenaline, 2 Hz paced): 2.81 μN
- twitch force (Day 14, 10% FB MIFI, 500 nM isoprenaline, spontaneous beating): 2.85 μN
- twitch force (Day 14, 10% FB MIFI, beating spontaneously in 5 M isoprenaline): ~4.0 μN
- twitch force as percent of initial twitch strength (Day 14, 10% FB MIFI, isoprenaline): ~50%
- effect on native beat frequency [2]: intended stimulatory effect
- effect on twitch force [2]: did not noticeably affect the twitch force
- ability to electrically pace the constructs (Day 14, 10% FB MIFI, isoprenaline at 500 nM and 5 μM, 2 Hz pacing): did not interrupt the ability to electrically pace the constructs
- twitch force (Day 14, 10% FB MIFI, isoprenaline, 2 Hz paced): 2.15 μN
- twitch force (Day 14, 10% FB MIFI, isoprenaline, spontaneous beating): 1.78 μN
